This assay has as its system advanced renal cell carcinoma. Nature of the assay: Clinical outcome of nivolumab (anti-PD-1) in RCC patients of the NIVOREN trial, stratified by antibiotic use. In kind it is in vivo, human. As to the method:
The patients were included from Gustave Roussy Cancer Campus, France. Inclusion criteria were patients with stage IV clear cell or non-clear cell RCC histology and disease progression during or after >1 prior anti-angiogenic therapy regimens who received nivolumab intravenously (i.v.) 3 mg/kg every 2 weeks until disease progression or intolerable toxicity in the NIVOREN GETUG-AFU 26 Phase II trial (EudraCT: 2015-004117-24) (Albiges et al., 2018). Computer tomography (CT) scans were performed at baseline and every 8 to 12 weeks for the first year and then every 12 to 15 weeks until disease progression. Tumor response was assessed using the Response Evaluation Criteria in Solid Tumors version 1.1 (RECIST v1.1) (Eisenhauer et al., 2009). […] We evaluated objective response rate defined as the number of patients with a complete response and a partial response. The best overall response was defined as the investigator-assessed best response (complete response, partial response, stable disease, or progressive disease) from the start date of nivolumab to objectively documented disease progression or subsequent therapy, whichever occurred first. […] Forty patients were analyzed in addition to 60 non-small cell lung cancer patients in the Science 2018 paper (Routy et al., 2018). […] For the first time, RCC were analyzed as a single and independent cohort in this paper. […]

This note sets out measurements from patent US12605412B2, “Microbial compositions for improving the efficacy of anticancer treatments based on immune checkpoint inhibitors and/or tyrosine kinase inhibitors and markers of responsiveness to such treatments” (INSTITUT GUSTAVE ROUSSY, priority 2019, dated 2026).

For the substance nivolumab [ICB], the “objective response rate (ORR)” value (RCC patients on nivolumab, noATB subgroup, RECIST v1.1) is listed as 28%. Where the note is “no ATB subgroup during ICB therapy”, this substance returned a primary resistance of 33%.
